Experimental data taken from a melting point compilation (Tetko et al.; mined from patent text by program, amines drawn as free bases though some values may be those of a salt).

Row | SMILES | melting point [°C]
1 | CC(=O)CCCN1C(=O)c2ccccc2S1(=O)=O | 90 to 93
2 | C=CC(=O)NCNC(=O)CCS(=O)(=O)CCCl | 186 to 187
3 | COC(=O)NCC1CN(c2ccc(-n3cnc(Cn4ccnc4)c3)c(F)c2)C(=O)O1 (centres undefined) | 78 to 80
4 | NSc1nc(-c2ccccc2Cl)ns1 | 143 to 145
5 | CSc1sc(C(N)=O)c2c1-c1nc(C)sc1CC2 | 269 to 270
6 | Nc1cc(N2C(=O)CCc3ccccc32)ccn1 | 204 to 205
7 | Fc1c(Br)ccc2c1OC(c1ccccc1)(c1ccccc1)O2 | 61.5 to 63
8 | CN(C)C(=O)c1ccccc1Sc1ccc(F)cc1[N+](=O)[O-] | 56 to 57
9 | CNc1cc2cnnn2c(C)n1 | 162 to 164
10 | O=C(Oc1ccc(Cl)cc1)c1ncn2c1[C@@H]1CCCN1C(=O)c1c(Cl)cccc1-2 | 241 to 242
11 | CCOc1nn(C(=O)NS(=O)(=O)c2c(Cl)cccc2SC)c(=O)n1C | 144
12 | CCOC(=O)c1c(CCl)nc2cc(OC)c(OC)cc2c1-c1ccc(Cl)c(Cl)c1 | 159 to 160
13 | O=S(=O)(c1ccccc1)c1cncc(OC2SCC(O)C(O)C2O)c1 (centres undefined) | 86
14 | Cc1ccc(-c2ccc3c(c2)C=C(C(=O)Nc2ccc(CN(C)C4CCOCC4)cc2)CCC3)cc1 | 161 to 162
15 | CCOCc1nc2c(N)nc3cc(-c4ccccc4)ccc3c2n1CCCN1CCCC1=O | 199 to 203
16 | CC(Oc1ccc(N)c([N+](=O)[O-])c1)c1cc(F)ccc1Cl (centres undefined) | 110
17 | O=C(O)C1=Cc2cccc(F)c2OC1C(F)(F)F (centres undefined) | 198 to 210
18 | O=c1cc(-c2nc3ccccc3[nH]2)oc2ccc(Cl)cc12 | 248 to 250
19 | CCN(c1ccc(Cl)cc1[N+](=O)[O-])S(=O)(=O)c1ccc(C)cc1 | 132 to 134
20 | CN(C)C1(c2ccccc2)CCC(CNC(=O)NCCc2c[nH]c3ccc(F)cc23)CC1 (centres undefined) | 70 to 73
21 | COc1cccc(-c2nc(-c3ccoc3)n[nH]2)c1 | 169 to 171

Row | SMILES | melting point [°C]
22 | OC(CSCc1ccc(Cl)cc1)(Cn1cncn1)c1ccc(Cl)cc1Cl (centres undefined) | 106 to 107
23 | CCCCCCCCOC(=O)CCc1cc(-n2nc3ccc(S(=O)(=O)c4ccccc4)cc3n2)c(O)c(C(C)(C)C)c1 | 62 to 63
24 | FC(F)(F)Oc1ccc2nccc(N3CCN(C(=S)NCc4ccccc4)CC3)c2c1 | 70 to 71
25 | O=S(=O)(Cc1n[nH]c(-c2ccco2)n1)c1ccccc1 | 185 to 186
26 | C=CCN(CC=C)c1nc(NC(=O)CC)n2oc(=O)nc2n1 | 157 to 159
27 | O=C1CN2CCC(CC2)N1 | 121 to 122
28 | CCC(CC)(CC(=O)Nc1cccc(SCc2ccc3ccc(F)cc3n2)c1)C(=O)O | 70 to 71
29 | CCc1nc(/C=C/c2cn(-c3ccccc3)nc2OCc2ccc(OCc3nc(-c4ccc(CC(=O)O)cc4)oc3C)c(OC)c2)c(C)s1 | 198 to 199
30 | COc1c(C)cc(-c2[nH]c3ccc(NS(=O)(=O)c4ccc(C)cc4)cc3c2C)cc1C | 192 to 194
31 | Cc1cc(O)ccc1-n1cc(C(=O)O)c(=O)cc1C1CCC(N(C)C)CC1 (centres undefined) | 207 to 215
32 | O=C(OC1CCCC1)c1ccc([N+](=O)[O-])c(OC2CCCC2)c1 | 45.5 to 46.5
33 | CC(C)NC(=O)c1nc(-c2ccccc2)c(-c2ccc(=O)[nH]n2)s1 | > 250
34 | CCOC(=O)c1cnc2c(c1)N(Cc1cc(F)ccc1F)CCN2 | 124 to 125
35 | O=C(Nc1ccc2nc(CN3CCCC3)ccc2c1)c1ccc(-c2ccc(Cl)cc2)cc1 | 200 to 202
36 | Oc1cccc(-c2cc3n(n2)-c2ccccc2CC3)c1 | 172 to 175
37 | O=C(c1cc2cc([N+](=O)[O-])ccc2o1)C12CC3CC(CC(C3)C1)C2 | 151 to 153
38 | O=C(O)Cc1ccc2ncsc2c1 | 147 to 149
39 | CCCCOCCOc1ccc(-c2ccc3c(c2)C=C(C(=O)Nc2ccc(CS(=O)c4nncn4C)cc2)CCN3CC(C)C)cc1 (centres undefined) | 87 to 89
40 | NC(=O)N(O)Cc1sccc1Sc1ccc(F)cc1 | 101 to 103
41 | COC(=O)c1cccc2c1c(C(C[N+](=O)[O-])C[N+](=O)[O-])cn2C | 142 to 145
42 | CC(=NOCCOc1ccc(CC2SC(=O)NC2=O)cc1)c1ccc(NS(=O)(=O)c2ccccc2)cc1 (centres undefined) | 213 to 215

Continued, values first:

Row | melting point [°C] | SMILES
43 | 112 | Cc1ccc2nc(CN3CCN(c4ccc(F)cc4)CC3)cn2c1
44 | 176 to 180 | Cc1cn(-c2cc(C)c(N)c(Br)c2)c(C)n1
45 | 133 to 135 | COC(=O)c1ccc(OC)c(CC2COc3ccc(OCc4ccccc4)cc3C2O)c1 (centres undefined)
46 | 118 to 119 | Clc1ccc(-c2cnccn2)cc1Cl
47 | 215 to 217 | CCCNC(=O)Nc1ccc(N2CCOCC2)cc1C(=O)NCC1CCN(C(c2ccccc2)c2ccccc2)CC1
48 | 109 to 113 | Nc1cccc(COc2cccc3c2CN(C2CCC(=O)NC2=O)C3=O)c1 (centres undefined)
49 | 97 to 104 | C=C(C)c1ccc(C(F)(F)C(F)(F)c2ccccc2)cc1
50 | 210 | COC(=O)c1nc2cc(C(F)(F)F)ccc2c(O)c1C(=O)OC
51 | 48 to 49 | COc1ccc([N+](=O)[O-])cc1OC(F)F
52 | 106 to 117 | CCOCCn1c(NC2CCN(CCC3(c4ccccc4)CCN(C(=O)c4cc(OC)c(OC)c(OC)c4)C3)CC2)nc2ccccc21 (single isomer, unassigned; (-))
53 | 140 | COc1cc(CCl)c(CCNC(=O)C(F)(F)F)cc1OC
54 | 165 to 167 | CCCc1nn(C)c2c1N=C(c1cc(CCC(=O)O)ccc1OCC)NC2
55 | 185 to 186 | O=C1CCc2ccc(Oc3ccc(CN4CCN(c5cccc(Cl)c5Cl)CC4)cc3)cc2N1
56 | 116 to 117 | CNC(=S)C1(c2ccc(Cl)c(Cl)c2)CCCCS1 (centres undefined)
57 | 118 to 125 | COc1cc2c(cc1OC)C(=O)C(=O)N(CCCN(C)CCCSc1cc(Br)c(N)c(Br)c1)CC2
58 | 240 to 242 | CC(=O)O[C@H]1C[C@@H](n2cnc3c(=O)[nH]cnc32)[C@H](O)[C@@H]1O (racemic)
59 | 96 to 122 | CC(=O)c1c(-c2ccc(Cl)cc2)c(-c2ccc(Cl)cc2)nn(CCC2OC(CO)C(O)C(O)C2O)c1=O (centres undefined)
60 | 149 to 150 | OCCOc1ccc(-c2nc(-c3ccc(Cl)cc3)nc(-c3ccc(OCCO)cc3O)n2)c(O)c1
61 | 75 to 77 | CON=C1CCCc2cc(OCCCOc3c(Cl)cc(OCC=C(Cl)Cl)cc3Cl)ccc21

Row | melting point [°C] | SMILES
62 | 112 | CCN(CC)CCNC(=O)c1nc(Cl)c(NCCN(CC)CC)nc1OC
63 | 255 to 256 | Cc1nc(-c2cnc3[nH]cc(C(=O)N[C@@H](C(=O)N4CC(C#N)C4)C4CC4)c3n2)cn1CC(F)(F)F
64 | 131 to 133 | O=C(c1ccc(-c2ccccc2)cc1)C(Br)CC(=O)N1CCC[C@H]1C(=O)O (some centres undefined)
65 | 135 to 137 | Cc1cc(N)cc(C)c1O
66 | 73 to 74 | COC(=O)[C@@H](NC(=O)c1ccc(F)c(Br)c1)[C@@H](C)O
67 | 123 to 124 | COC(=O)C(NC(=O)OC(C)(C)C)c1ccc(CC(=O)O)cc1 (centres undefined)
68 | 151 | CC[C@@H](CNc1ccc(C)cc1C)NS(=O)(=O)c1c(N)cc(Cl)cc1Cl
69 | 151 to 152 | N#Cc1ccc(C(=O)NC(=S)NC2CC2)cc1
70 | 260 | CCCCc1cn(Cc2ccc(-c3ccccc3C(=O)O)cc2)c2c(c1=O)CCCC2
71 | > 260 | NC(=O)c1cccc(C=CC(=O)O)c1
72 | 160 to 162 | O=C(NCc1ccccc1)C1C=Nc2ccccc2S1 (centres undefined)
73 | 135 to 137 | O=C1c2ccccc2C(=O)N1CCCOc1ccc(O)cc1
74 | 208 | O=C(NCCCCN1CCCC1)Nc1snc(OCc2c(F)cc(Br)cc2F)c1C(=O)O
75 | > 300 | Cc1cc(C(=O)O)cc(C)c1C(=O)O
76 | 281 to 285 | CCOC(=O)c1ccc(N2CCN(c3c(C)nc(N)nc3N)CC2)cc1
77 | 188 to 190 | COc1cc(-c2nc3ccc(OC(F)(F)F)cc3[nH]2)ccc1O
78 | 120 to 121 | O=C(O)CP(=O)(O)CCc1ccccc1
79 | 192 to 194 | CC(=O)Nc1ccc(-n2c(-c3ccccc3)cc3c2CCCC3)cc1C(=O)O
80 | 134 | CCCN(CCCc1c[nH]c2ccc(F)cc12)C1COc2c(ccc3ncccc23)C1 (centres undefined)

Row | melting point [°C] | SMILES
81 | 201 to 202 | COc1cc2c(Nc3ccc(Cl)cc3F)ncnc2cc1OCC1CCOC1 (centres undefined)
82 | 202 to 204 | CC(C)NC(C)CC1=C2c3ccc(O)cc3CCC2CCNC1=O (centres undefined)
83 | 122 to 123 | Nc1sc2c(c1Cc1cccs1)CCN(Cc1ccccc1)C2
84 | 133 to 136 | COc1ccc(N2C(=O)Cc3ccccc32)cc1F
85 | 124 to 125 | O=C(c1ccco1)N1CCN(c2nc3c(c(-c4ccc(F)cc4)n2)CCC3)CC1
86 | 258 | CC(C)(C)c1ccc(S(=O)(=O)C=CSc2ccccc2)cc1
87 | 155 | COC(=O)c1ccc(O)c(C=NO)c1
88 | 150 to 151 | CC(NC1=Nc2ccccc2C(=O)N(C)C1)c1ccccc1 (centres undefined)
89 | 75 to 76 | Cc1c(-c2ccccc2)oc2c(OCCCCCBr)cccc2c1=O
90 | 186 to 188 | O=C1c2cc3cc(O)ccc3n2CC1CC1CCN(Cc2ccccc2)CC1 (centres undefined)
91 | 105 to 109 | Cn1cc(-c2ccc(C(=O)N3Cc4cccn4Cc4ccccc43)c(Cl)c2)cn1
92 | 56 to 58 | CCN(CCO)CCN1C(=O)c2ccccc2C1=O
93 | 168 to 170 | COCCc1nc2c(N)nc3c(c2n1CCCNC(=O)c1ccccc1)CCCC3
94 | 168 to 170 | C#CCN1C(=O)C2CC3CC(C2)CC1C3
95 | 156 to 158 | N#Cc1ccc(Cl)cc1OCC(O)CNc1ccccc1OC1CC=NNC1=O (centres undefined)
96 | 177 to 179 | O=C(CC(=O)c1ccccc1)Nc1cc(Cl)c(Cl)cc1[N+](=O)[O-]
97 | 216 to 218 | O=C(O)COc1ccc2c(-c3ccc(O)cc3F)noc2c1Cl
98 | 135 to 136 | N#Cc1ccc(-c2ccc(OC[C@H](O)CCc3cccnc3)cc2)cc1
99 | 185 to 188 | CCc1nn(C(=O)OC(C)(C)C)c2cc(-c3ccc4nnn(Cc5ccc6ncccc6c5)c4n3)ccc12
